Measured values: patent publication US8435978B2, “Substituted sulfonamide compounds” (Gruenenthal GmbH, priority 2006, dated 2013)

Assays:
[1] = biological target: T1, human B1R receptor (Homo sapiens, UniProt P46663); assay: Functional study on the bradykinin receptor 1 (B1R), FLIPR Ca2+ assay, hB1R cells; format: cell-based; conditions: agonist Lys-Des-Arg9-bradykinin 0.5 nM, % inhibition compared with the maximum achievable inhibition; for inhibition at 10 µM: CHO-K1, test substance 10 μM, read-out: B1R Antagonism, human [10 μM] % Inhibition; for B1R Antagonism, human [10 μM] % Inhibition: test substance 10 μM, hB1R CHO K1 cells
T1 construct: host or cells: CHO K1 cells (Chinese hamster ovary), stably transfected
T1 sequence (P46663 1-353): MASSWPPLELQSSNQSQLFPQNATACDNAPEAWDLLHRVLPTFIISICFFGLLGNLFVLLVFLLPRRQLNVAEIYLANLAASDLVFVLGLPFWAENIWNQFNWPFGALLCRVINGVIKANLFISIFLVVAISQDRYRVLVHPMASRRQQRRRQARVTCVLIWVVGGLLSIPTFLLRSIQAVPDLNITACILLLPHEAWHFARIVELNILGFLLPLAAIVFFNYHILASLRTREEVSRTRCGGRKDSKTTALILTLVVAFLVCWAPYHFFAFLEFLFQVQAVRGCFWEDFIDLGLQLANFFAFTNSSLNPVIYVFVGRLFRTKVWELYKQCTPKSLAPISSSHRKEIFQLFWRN
Outline: (§1)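 CHO K1 cells stably expressing human or rat B1R were loaded with Fluo-4 and read on a FLIPR (ex 488/em 540 nm, peak fluorescence). Test compounds at 10 μM were added first, then after 10 min agonist: Lys-Des-Arg9-bradykinin 0.5 nM for hB1R, Des-Arg9-bradykinin 100 nM for rB1R; % inhibition versus maximum inhibition.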

[2] = biological target: T2, B1R receptor of the rat (Rattus norvegicus, UniProt P97583); assay: Functional study on the bradykinin receptor 1 (B1R), FLIPR Ca2+ assay, rB1R cells; format: cell-based; conditions: agonist Des-Arg9-bradykinin 100 nM, % inhibition compared with the maximum achievable inhibition; for inhibition at 10 µM: CHO-K1, test substance 10 μM, read-out: B1R Antagonism, rat [10 μM] % Inhibition; for B1R Antagonism, rat [10 μM] % Inhibition: test substance 10 μM, rB1R CHO K1 cells
T2 construct: host or cells: CHO K1 cells (Chinese hamster ovary), stably transfected
T2 sequence (P97583 1-337): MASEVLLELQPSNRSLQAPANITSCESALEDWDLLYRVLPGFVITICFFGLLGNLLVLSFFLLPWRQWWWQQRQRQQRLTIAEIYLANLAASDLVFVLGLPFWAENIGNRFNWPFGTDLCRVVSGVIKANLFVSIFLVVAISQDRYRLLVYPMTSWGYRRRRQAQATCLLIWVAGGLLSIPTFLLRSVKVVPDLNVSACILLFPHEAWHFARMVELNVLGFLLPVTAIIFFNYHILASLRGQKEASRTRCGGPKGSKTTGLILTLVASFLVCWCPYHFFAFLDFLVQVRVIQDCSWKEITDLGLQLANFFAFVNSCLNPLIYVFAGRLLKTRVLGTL
Outline: as §1

| SMILES | inhibition at 10 µM [1] [%] | inhibition at 10 µM [2] [%] | B1R Antagonism, human [10 μM] % Inhibition [1] [%] | B1R Antagonism, rat [10 μM] % Inhibition [2] [%] |
| --- | --- | --- | --- | --- |
| COc1ccc(S(=O)(=O)N2CCCCC2CCOCC(=O)N2CCC(CCN3CCCCC3)CC2)cc1 (stereo not drawn) [Example 90, 2-(2-(1-(4-methoxyphenylsulfonyl)piperidin-2-yl)ethoxy)-1-(4-(2-(piperidin-1-yl)-ethyl)piperidin-1-yl)ethanone] | 50 | 99.5 |  |  |
| O=C(COCC1CCCCN1S(=O)(=O)c1c(Cl)cc(Cl)cc1Cl)NCc1ccc(N2CCOCC2)cc1 (stereo not drawn) [Example 581, N-(4-morpholinobenzyl)-2-((1-(2,4,6-trichlorophenylsulfonyl)piperidin-2-yl)methoxy)acetamide] | 27.5 | 76.3 |  |  |
| COc1cc(C)c(S(=O)(=O)N2Cc3ccccc3CC2COCC(=O)N2CCC(CCN3CCCCC3)CC2)c(C)c1C (stereo not drawn) [Example 276, 2-((2-(4-methoxy-2,3,6-trimethylphenylsulfonyl)-1,2,3,4-tetrahydroisoquinolin-3-yl)methoxy)-1-(4-(2-(piperidin-1-yl)ethyl)piperidin-1-yl)ethanone] | 98.9 | 94.2 |  |  |
| O=C(COCC1CCCCN1S(=O)(=O)c1ccc(Cl)c(Cl)c1)N1CCN(CC2CCCCC2)CC1 (stereo not drawn) [Example 68, 1-(4-cyclohexylmethyl-piperazin-1-yl)-2-[1-(3,4-dichloro-phenylsulfonyl)-piperidin-2-ylmethoxy]-ethanone] | 54.1 | 0 |  |  |
| COc1cc(C)c(S(=O)(=O)N2CCCCC2COCC(=O)NCC(c2ccc(C(F)(F)F)cc2)N2CCOCC2)c(C)c1 (stereo not drawn) [Example 249, 2-((1-(4-methoxy-2,6-dimethylphenylsulfonyl)piperidin-2-yl)methoxy)-N-(2-morpholin-2-(4-(trifluoromethyl)phenyl)ethyl)acetamide] |  |  | 59.22 | 92.36 |
| O=C(COCC1CCCCN1S(=O)(=O)c1c(Cl)cccc1Cl)N1CCN(CCc2ccccc2)CC1 (stereo not drawn) [Example 320, 2-((1-(2,6-dichlorophenylsulfonyl)piperidin-2-yl)methoxy)-1-(4-phenethylpiperazin-1-yl)ethanone] | 106 | 102 |  |  |
| O=C(COCC1Cc2ccccc2CN1S(=O)(=O)c1ccc(Cl)cc1Cl)N1CCC(N2CCCC2)CC1 (stereo not drawn) [Example 17] |  |  | 95.53 | 96.94 |
| O=C(COCC1CCCCN1S(=O)(=O)c1c(Cl)cccc1Cl)N1CCC(c2ccncc2)C1 (stereo not drawn) [Example 282, 2-((1-(2,6-dichlorophenylsulfonyl)piperidin-2-yl)methoxy)-1-(3-(pyridin-4-yl)pyrrolidin-1-yl)ethanone] | 103 | 86 |  |  |
| O=C(COCC1CCCCN1S(=O)(=O)c1c(Cl)cccc1Cl)N1CCN(c2ccccn2)CC1 (stereo not drawn) [Example 316, 2-((1-(2,6-dichlorophenylsulfonyl)piperidin-2-yl)methoxy)-1-(4-(pyridin-2-yl)piperazin-1-yl)ethanone] | 82.7 | 98.2 |  |  |
| O=C(COCC1CCCCN1S(=O)(=O)c1c(Cl)cc(Cl)cc1Cl)NCCN1CCCC1 (stereo not drawn) [Example 459, N-(2-(pyrrolidin-1-yl)ethyl)-2-((1-(2,4,6-trichlorophenylsulfonyl)piperidin-2-yl)methoxy)acetamide] | 57.1 | 102 |  |  |
| O=C(COCC1CCCCN1S(=O)(=O)c1cccc2ccccc12)NCC1CCCN(Cc2ccccc2)C1 (stereo not drawn) [Example 34, N-(1-benzyl-piperidin-3-ylmethyl)-2-[1-(naphthyl-1-sulfonyl)-piperidin-2-ylmethoxy]-acetamide] |  |  | 79.9 | 39.48 |
| O=C(COCC1CCCN1S(=O)(=O)c1c(Cl)cc(Cl)cc1Cl)NCc1ccc(CN2CCCCC2)cc1 (stereo not drawn) [Example 10, N-(4-piperidin-1-ylmethyl-benzyl)-2-[1-(2,4,6-trichloro-phenylsulfonyl)-pyrrolidin-2-ylmethoxy]-acetamide] | 100 | 91.8 |  |  |

Second part, the molecule after the results:

| inhibition at 10 µM [1] [%] | inhibition at 10 µM [2] [%] | B1R Antagonism, human [10 μM] % Inhibition [1] [%] | B1R Antagonism, rat [10 μM] % Inhibition [2] [%] | SMILES |
| --- | --- | --- | --- | --- |
| 102 | 103 |  |  | COc1cc(C)c(S(=O)(=O)N2CCCCC2COCC(=O)N2CCN(CCC#N)CC2)c(C)c1 (stereo not drawn) [Example 410, 3-(4-(2-((1-(4-methoxy-2,6-dimethylphenylsulfonyl)piperidin-2-yl)methoxy)acetyl)piperazin-1-yl)propanenitrile] |
| 91 | 80.6 |  |  | Cc1cc(C)c(S(=O)(=O)N2Cc3ccccc3CC2COCC(=O)N2CCN(CCCN(C)C)CC2)c(C)c1 (stereo not drawn) [Example 25, 1-[4-(3-dimethylamino-propyl)-piperazin-1-yl]-2-[2-(2,4,6-trimethyl-phenylsulfonyl)-1,2,3,4-tetrahydro-isoquinolin-3-ylmethoxy]-ethanone] |
| 47.1 | 101 |  |  | COc1cc(C)c(S(=O)(=O)N2CCCCC2COCC(=O)N2CCN(c3nc(-c4ccccc4)cs3)CC2)c(C)c1 (stereo not drawn) [Example 402, 2-((1-(4-methoxy-2,6-dimethylphenylsulfonyl)piperidin-2-yl)methoxy)-1-(4-(4-phenylthiazol-2-yl)piperazin-1-yl)ethanone] |
| 73.5 | 101 |  |  | COc1cc(C)c(S(=O)(=O)N2CCCCC2COCC(=O)N2CCN(c3ncccc3C#N)CC2)c(C)c1 (stereo not drawn) [Example 513, 2-(4-(2-((1-(4-methoxy-2,6-dimethylphenylsulfonyl)piperidin-2-yl)methoxy)acetyl)piperazin-1-yl)nicotinonitrile] |
| 107 | 101 |  |  | COc1cc(C)c(S(=O)(=O)N2CCCC2COCC(=O)N2CCC(CCN3CCCC3)CC2)c(C)c1 (stereo not drawn) [Example 95, 2-((1-(4-methoxy-2,6-dimethylphenylsulfonyl)pyrrolidin-2-yl)methoxy)-1-(4-(2-(pyrrolidin-1-yl)ethyl)piperidin-1-yl)ethanone] |
| 94 | 100 |  |  | COc1cc(C)c(S(=O)(=O)N2CCCCC2COCC(=O)NCc2ccccc2N2CCN(C)CC2)c(C)c1 (stereo not drawn) [Example 432, 2-((1-(4-methoxy-2,6-dimethylphenylsulfonyl)piperidin-2-yl)methoxy)-N-(2-(4-methylpiperazin-1-yl)benzyl)acetamide] |
| 96.7 | 96.3 |  |  | COc1cc(C)c(S(=O)(=O)N2CCCC2COCC(=O)N2CCC(c3nc4cc(C)ccc4[nH]3)CC2)c(C)c1 (stereo not drawn) [Example 474, 2-((1-(4-methoxy-2,6-dimethylphenylsulfonyl)pyrrolidin-2-yl)methoxy)-1-(4-(5-methyl-1H-benzo[d]imidazol-2-yl)piperidin-1-yl)ethanone] |
| 93 | 102 |  |  | COc1cc(C)c(S(=O)(=O)N2CCCCC2COCC(=O)N2CCCC2CN2CCCCC2)c(C)c1 (stereo not drawn) [Example 399, 2-((1-(4-methoxy-2,6-dimethylphenylsulfonyl)piperidin-2-yl)methoxy)-1-(2-(piperidin-1-ylmethyl)pyrrolidin-1-yl)ethanone] |
| 14.3 | 99.5 |  |  | COc1cc(C)c(S(=O)(=O)N2CCCCC2COCC(=O)Nc2cccc(N3CCCCC3)c2)c(C)c1 (stereo not drawn) [Example 429, 2-((1-(4-methoxy-2,6-dimethylphenylsulfonyl)piperidin-2-yl)methoxy)-N-(3-(piperidin-1-yl)phenyl)acetamide] |
| 24.7 | 80.6 |  |  | COc1cc(C)c(S(=O)(=O)N2CCCCC2COCC(=O)Nc2ccc(N3CCOCC3)nc2)c(C)c1 (stereo not drawn) [Example 396, 2-((1-(4-methoxy-2,6-dimethylphenylsulfonyl)piperidin-2-yl)methoxy)-N-(6-morpholinopyridin-3-yl)acetamide] |
| 104 | 93.4 |  |  | COc1cc(C)c(S(=O)(=O)N2CCCC2COCC(=O)N2CCN(CCN(C(C)C)C(C)C)CC2)c(C)c1 (stereo not drawn) [Example 270, 1-(4-(2-(diisopropylamino)ethyl)piperazin-1-yl)-2-((1-(4-methoxy-2,6-dimethylphenylsulfonyl)pyrrolidin-2-yl)methoxy)ethanone] |
| 102 | 98.8 |  |  | COc1cc(C)c(S(=O)(=O)N2CCCC2COCC(=O)N2CCN(c3cccc(C(F)(F)F)c3)CC2)c(C)c1 (stereo not drawn) [Example 465, 2-((1-(4-methoxy-2,6-dimethylphenylsulfonyl)pyrrolidin-2-yl)methoxy)-1-(4-(3-(trifluoromethyl)phenyl)piperazin-1-yl)ethanone] |
